Assay results published in ChEMBL document CHEMBL3407464, “Novel 5-HT6 receptor antagonists/D2 receptor partial agonists targeting behavioral and psychological symptoms of dementia” (Eur J Med Chem, 2015).

Assays:
[1] = biological target: T1, 5-hydroxytryptamine receptor 6 (Homo sapiens, UniProt P50406); assay: biochemical
D(2) dopamine receptor [2] = biological target: T2, D(2) dopamine receptor (Homo sapiens, UniProt P14416); assay: biochemical
[3] = biological target: T1, 5-hydroxytryptamine receptor 6; assay: Agonist activity at human 5-HT6 receptor expressed in CHOK1 cells assessed as calcium mobilization at 1 uM by radiometric and luminescence plate counting method; format: functional, cell-based; conditions: CHO-K1
D(2) dopamine receptor [4] = biological target: T2, D(2) dopamine receptor; assay: Antagonist activity at human dopamine D2 receptor expressed in CHOK1 cells assessed as inhibition of apomorphine-induced calcium mobilization at 1 uM by radiometric and luminescence plate counting method; format: functional, cell-based; conditions: CHO-K1
[5] = biological target: T3, Muscarinic acetylcholine receptor M1 (Homo sapiens) (UniProt P11229); assay: Inhibition of muscarinic M1 receptor (unknown origin) assessed as reduction in control ligand binding at 1 uM
T3 sequence (whole entry): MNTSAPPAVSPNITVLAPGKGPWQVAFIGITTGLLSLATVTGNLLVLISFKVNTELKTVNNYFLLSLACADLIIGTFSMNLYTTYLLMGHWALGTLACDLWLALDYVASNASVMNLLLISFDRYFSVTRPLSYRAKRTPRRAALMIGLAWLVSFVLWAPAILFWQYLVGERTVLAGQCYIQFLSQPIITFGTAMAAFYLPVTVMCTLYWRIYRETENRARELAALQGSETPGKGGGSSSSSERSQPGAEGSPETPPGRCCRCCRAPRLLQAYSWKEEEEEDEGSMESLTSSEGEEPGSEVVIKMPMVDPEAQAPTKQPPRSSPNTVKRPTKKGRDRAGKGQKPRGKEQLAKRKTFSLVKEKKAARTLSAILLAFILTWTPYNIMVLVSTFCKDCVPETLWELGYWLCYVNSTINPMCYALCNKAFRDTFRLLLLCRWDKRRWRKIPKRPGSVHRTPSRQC

D(2) dopamine receptor [6] = biological target: T2, D(2) dopamine receptor; assay: Agonist activity at human dopamine D2 receptor expressed in CHOK1 cells assessed as calcium mobilization at 1 uM by radiometric and luminescence plate counting method; format: functional, cell-based; conditions: CHO-K1
hERG (KCNH2) = hERG (KCNH2) (Homo sapiens, UniProt Q12809); assay: Inhibition of human ERG expressed in CHO cells assessed as reduction in channel current at holding potential of 0 mV at 1 uM by electrophysiological method; format: cell-based; conditions: CHO cells expressing human ERG
hERG (KCNH2), sequence (Q12809 whole entry): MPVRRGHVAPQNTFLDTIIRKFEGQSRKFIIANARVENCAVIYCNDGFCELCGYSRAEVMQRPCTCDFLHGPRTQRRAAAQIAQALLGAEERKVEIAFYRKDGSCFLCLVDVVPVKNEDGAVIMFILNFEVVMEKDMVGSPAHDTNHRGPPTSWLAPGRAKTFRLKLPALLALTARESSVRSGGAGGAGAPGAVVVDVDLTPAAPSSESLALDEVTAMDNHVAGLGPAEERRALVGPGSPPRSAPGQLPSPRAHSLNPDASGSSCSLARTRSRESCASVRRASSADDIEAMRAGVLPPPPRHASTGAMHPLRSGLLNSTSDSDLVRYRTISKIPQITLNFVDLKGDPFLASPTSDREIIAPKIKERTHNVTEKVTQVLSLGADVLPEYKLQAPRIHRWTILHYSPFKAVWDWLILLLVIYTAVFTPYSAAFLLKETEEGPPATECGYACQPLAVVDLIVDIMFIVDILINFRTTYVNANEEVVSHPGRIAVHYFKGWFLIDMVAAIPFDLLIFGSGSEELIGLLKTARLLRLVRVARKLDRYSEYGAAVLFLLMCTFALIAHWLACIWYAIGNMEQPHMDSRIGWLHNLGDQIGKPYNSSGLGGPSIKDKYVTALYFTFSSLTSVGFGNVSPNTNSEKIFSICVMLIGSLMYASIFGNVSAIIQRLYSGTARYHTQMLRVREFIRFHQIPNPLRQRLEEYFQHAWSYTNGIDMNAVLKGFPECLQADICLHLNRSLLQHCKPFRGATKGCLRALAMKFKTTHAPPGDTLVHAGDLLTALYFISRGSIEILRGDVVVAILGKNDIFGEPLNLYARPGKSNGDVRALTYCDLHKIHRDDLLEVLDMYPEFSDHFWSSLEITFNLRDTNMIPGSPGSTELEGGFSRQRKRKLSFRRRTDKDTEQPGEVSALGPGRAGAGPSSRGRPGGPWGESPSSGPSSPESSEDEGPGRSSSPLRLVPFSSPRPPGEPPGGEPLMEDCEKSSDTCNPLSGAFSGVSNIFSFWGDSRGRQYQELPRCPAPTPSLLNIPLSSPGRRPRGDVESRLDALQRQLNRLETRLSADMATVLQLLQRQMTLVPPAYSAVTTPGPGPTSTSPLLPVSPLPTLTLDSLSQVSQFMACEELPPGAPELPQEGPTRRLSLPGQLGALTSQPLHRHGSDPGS

Rattus norvegicus [7] = assay: Anti-depressant-like activity in intraperitoneally dosed 3-months old Wistar rat by Porsolt's forced swim test; format: functional; conditions: ip, read-out: MED
Rattus norvegicus [8] = assay: Anxiolytic activity in intraperitoneally dosed 3-months old Wistar rat by Vogel's conflict drinking test; format: functional; conditions: ip, read-out: MED

T1 sequence (P50406 whole entry): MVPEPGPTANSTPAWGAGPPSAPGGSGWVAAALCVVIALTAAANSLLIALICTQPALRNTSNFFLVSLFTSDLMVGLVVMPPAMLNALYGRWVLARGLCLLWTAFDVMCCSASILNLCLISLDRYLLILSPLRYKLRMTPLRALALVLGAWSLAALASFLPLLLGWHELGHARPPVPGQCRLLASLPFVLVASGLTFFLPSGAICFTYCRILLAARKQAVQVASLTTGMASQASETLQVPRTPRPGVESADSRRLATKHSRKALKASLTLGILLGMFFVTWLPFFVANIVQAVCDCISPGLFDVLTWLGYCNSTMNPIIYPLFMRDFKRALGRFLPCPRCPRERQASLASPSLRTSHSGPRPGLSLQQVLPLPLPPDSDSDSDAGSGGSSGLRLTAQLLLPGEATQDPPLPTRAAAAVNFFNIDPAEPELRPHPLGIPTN
T2 sequence (P14416 whole entry): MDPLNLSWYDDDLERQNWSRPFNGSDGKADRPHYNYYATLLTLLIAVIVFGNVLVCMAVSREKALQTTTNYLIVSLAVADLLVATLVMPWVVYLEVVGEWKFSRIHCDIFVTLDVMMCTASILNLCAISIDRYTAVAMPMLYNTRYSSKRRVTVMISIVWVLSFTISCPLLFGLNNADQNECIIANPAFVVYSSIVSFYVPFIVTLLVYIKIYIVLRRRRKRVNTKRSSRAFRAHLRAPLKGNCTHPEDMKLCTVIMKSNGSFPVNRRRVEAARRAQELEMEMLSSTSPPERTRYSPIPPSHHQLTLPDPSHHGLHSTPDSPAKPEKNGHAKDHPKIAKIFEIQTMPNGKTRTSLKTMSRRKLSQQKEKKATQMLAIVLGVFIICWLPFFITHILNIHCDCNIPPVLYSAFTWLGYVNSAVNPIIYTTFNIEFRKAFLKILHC

SMILES | Ki [1] [nM] | Ki (D(2) dopamine receptor [2]) [nM] | further results
O=C1CCc2ccc(OCCCCN3CCC(c4cn(Cc5ccccc5)c5ccccc45)CC3)cc2N1 | 150 | 4.8 | –
O=C1CCc2ccc(OCCCCN3CCN(c4cccc5c4ccn5Cc4ccccc4F)CC3)cc2N1 | 45 | 11 | –
NC(=O)c1ccccc1OCCCN1CC=C(c2cn(Cc3ccccc3)c3ccccc23)CC1 | 590 | 31 | –
NC(=O)c1ccccc1OCCCN1CC=C(c2cn(S(=O)(=O)c3ccccc3)c3ccccc23)CC1 | 33 | 160 | –
O=C1CCc2ccc(OCCCCN3CCN(c4cccc5c4ccn5Cc4ccc(F)cc4)CC3)cc2N1 | 100 | 12 | –
O=C1CCc2ccc(OCCCCNCCc3cn(S(=O)(=O)c4ccccc4)c4ccccc34)cc2N1 | 52 | 120 | –
NC(=O)c1ccccc1OCCCNCCc1cn(S(=O)(=O)c2ccccc2)c2ccccc12 | 62 | 180 | –
COc1ccc(NS(=O)(=O)c2sc3ccc(Cl)cc3c2C)cc1N1CCNCC1 | – | – | minimal effective dose (Rattus norvegicus [7]): 10 mg/kg; minimal effective dose (Rattus norvegicus [8]): 3 mg/kg
NC(=O)c1ccccc1OCCCN1CCC(c2cn(Cc3ccccc3)c3ccccc23)CC1 | 490 | 29 | –
O=C1CCc2ccc(OCCCCN3CCN(c4cccc5c4ccn5Cc4cccc(F)c4)CC3)cc2N1 | 20 | 6.1 | inhibition [3]: 0%; inhibition (D(2) dopamine receptor [4]): 99%; inhibition [5]: 94%; inhibition (D(2) dopamine receptor [6]): 39%; inhibition at 1 µM (hERG (KCNH2)): 18%
NC(=O)c1ccccc1OCCCN1CCN(c2cccc3c2ccn3Cc2ccccc2)CC1 | 24 | 95 | –
O=C1CCc2ccc(OCCCCN3CC=C(c4cn(Cc5ccccc5)c5ccccc45)CC3)cc2N1 | 22 | 73 | –
O=C1CCc2ccc(OCCCCNCCc3cn(Cc4ccccc4)c4ccccc34)cc2N1 | 150 | 70 | –
NC(=O)c1ccccc1OCCCN1CCC(c2cn(S(=O)(=O)c3ccccc3)c3ccccc23)CC1 | 57 | 62 | –
NC(=O)c1ccccc1OCCCN1CCN(c2cccc3c2ccn3Cc2ccc(F)cc2)CC1 | 83 | 44 | –
NC(=O)c1ccccc1OCCCNCCc1cn(Cc2ccccc2)c2ccccc12 | 680 | 270 | –
NC(=O)c1ccccc1OCCCN1CCN(c2cccc3c2ccn3Cc2ccccc2F)CC1 | 23 | – | –
O=C1CCc2ccc(OCCCCN3CCC(c4cn(S(=O)(=O)c5ccccc5)c5ccccc45)CC3)cc2N1 | 140 | 14 | –
O=C1CCc2ccc(OCCCCN3CCN(c4cccc5c4ccn5Cc4cccc(Cl)c4)CC3)cc2N1 | – | – | inhibition [3]: 0%; inhibition (D(2) dopamine receptor [4]): 99%; inhibition [5]: 78%; inhibition (D(2) dopamine receptor [6]): 37%; inhibition at 1 µM (hERG (KCNH2)): 9%
O=C1CCc2ccc(OCCCCN3CC=C(c4cn(S(=O)(=O)c5ccccc5)c5ccccc45)CC3)cc2N1 | 52 | 40 | –

Second part, led by results:

Ki [1] [nM] | Ki (D(2) dopamine receptor [2]) [nM] | SMILES | further results
2.3 | 23 | O=C1CCc2ccc(OCCCN3CCN(c4cccc5c4ccn5S(=O)(=O)c4ccccc4)CC3)cc2N1 | –
6.9 | 47 | O=S(=O)(c1ccccc1)n1ccc2c(N3CCN(CCCCOc4ccc(F)cc4)CC3)cccc21 | –
9.9 | 45 | NC(=O)c1ccccc1OCCCN1CCN(c2cccc3c2ccn3Cc2cccc(F)c2)CC1 | –
0.4 | – | O=C1CCc2ccc(OCCCCN3CCN(c4cccc5c4ccn5S(=O)(=O)c4ccccc4)CC3)cc2N1 | inhibition [3]: 0%; inhibition (D(2) dopamine receptor [4]): 100%; inhibition [5]: 37%; inhibition (D(2) dopamine receptor [6]): 48%; inhibition at 1 µM (hERG (KCNH2)): 13%
3.8 | 220 | O=S(=O)(c1ccccc1)n1ccc2c(N3CCN(CCCOc4ccc5ccoc5c4)CC3)cccc21 | –
1.7 | 110 | CC(C)Oc1ccccc1OCCCN1CCN(c2cccc3c2ccn3S(=O)(=O)c2ccccc2)CC1 | –
16 | 62 | O=S(=O)(c1ccccc1)n1ccc2c(N3CCN(CCCCOc4ccccc4)CC3)cccc21 | –
11 | 120 | CC(C)Oc1ccccc1OCCCCN1CCN(c2cccc3c2ccn3S(=O)(=O)c2ccccc2)CC1 | –
13 | 20 | O=C1CCc2ccc(OCCCCN3CCN(c4cccc5c4ccn5Cc4ccccc4)CC3)cc2N1 | inhibition [3]: 0%; inhibition (D(2) dopamine receptor [4]): 97%; inhibition [5]: 99%; inhibition (D(2) dopamine receptor [6]): 42%; inhibition at 1 µM (hERG (KCNH2)): 14%
12.6 | 76 | NC(=O)c1ccccc1OCCCN1CCN(c2cccc3c2ccn3Cc2cccc(Cl)c2)CC1 | –
7.6 | 290 | O=S(=O)(c1ccccc1)n1ccc2c(N3CCN(CCCOc4ccccc4)CC3)cccc21 | –
5.4 | 67 | O=S(=O)(c1ccccc1)n1ccc2c(N3CCN(CCCOc4ccc(F)cc4)CC3)cccc21 | –
2.8 | 78 | NC(=O)c1ccccc1OCCCCN1CCN(c2cccc3c2ccn3S(=O)(=O)c2ccccc2)CC1 | –
